Measured values: the NIST ThermoML archive (doi:10.1016/j.tca.2013.08.002)

Assay: mn = molality of the nth substance listed, in mol/kg
Settings: 101 kPa, Liquid; for speed of sound: Frequency=1.999 MHz, Sing-around technique in a fixed-path interferometer; for mass density: Vibrating tube method

C[N+](C)(C)CC(=O)[O-] [(trimethylammonio)acetate] + O
Settings	mass density [kg/m3]	speed of sound [m/s]
288.15 K, m1 = 0.0482	1000.1	1471.1
288.15 K, m1 = 0.1063	1001.2	1477.4
288.15 K, m1 = 0.5027	1008.5	1517.6
288.15 K, m1 = 1.002	1016.8	1562.8
288.15 K, m1 = 1.504	1024.3	1599.7
288.15 K, m1 = 2.005	1030.9	1628.1
288.15 K, m1 = 2.519	1036.6	1648.9
288.15 K, m1 = 3.008	1041.8	1658.3
293.15 K, m1 = 0.0482	999.1	1487.7
293.15 K, m1 = 0.1063	1000.2	1493.8
293.15 K, m1 = 0.5027	1007.2	1535.4
293.15 K, m1 = 1.002	1015.1	1580.7
293.15 K, m1 = 1.504	1022.1	1619.5
293.15 K, m1 = 2.005	1028.1	1649.8
293.15 K, m1 = 2.519	1033.6	1670.4
293.15 K, m1 = 3.008	1038.5	1680.1
298.15 K, m1 = 0.0482	997.9	1501.6
298.15 K, m1 = 0.1063	998.9	1507.6
298.15 K, m1 = 0.5027	1005.6	1547.2
298.15 K, m1 = 1.002	1013.1	1593.1
298.15 K, m1 = 1.504	1019.9	1630
298.15 K, m1 = 2.005	1025.8	1656.8
298.15 K, m1 = 2.519	1031	1674.5
298.15 K, m1 = 3.008	1035.4	1698.9
303.15 K, m1 = 0.0482	996.6	1514.1
303.15 K, m1 = 0.1063	997.6	1520
303.15 K, m1 = 0.5027	1004.2	1558.6
303.15 K, m1 = 1.002	1011.6	1602.3
303.15 K, m1 = 1.504	1018	1639.6
303.15 K, m1 = 2.005	1023.5	1669.8
303.15 K, m1 = 2.519	1028.4	1689.7
303.15 K, m1 = 3.008	1032.8	1715.2
308.15 K, m1 = 0.0482	994.9	1524.2
308.15 K, m1 = 0.1063	995.9	1529.9
308.15 K, m1 = 0.5027	1002.5	1567.5
308.15 K, m1 = 1.002	1009.9	1610.2
308.15 K, m1 = 1.504	1016.4	1648.1
308.15 K, m1 = 2.005	1022	1679.8
308.15 K, m1 = 2.519	1027.1	1700
308.15 K, m1 = 3.008	1031.2	1726.5
313.15 K, m1 = 0.0482	993.1	1533.4
313.15 K, m1 = 0.1063	994.1	1538.8
313.15 K, m1 = 0.5027	1000.7	1574.2
313.15 K, m1 = 1.002	1007.9	1615.7
313.15 K, m1 = 1.504	1014.4	1652.3
313.15 K, m1 = 2.005	1019.9	1682.8
313.15 K, m1 = 2.519	1025	1705.9
313.15 K, m1 = 3.008	1029.1	1737.1
318.15 K, m1 = 0.0482	991.1	1540.8
318.15 K, m1 = 0.1063	992.1	1546
318.15 K, m1 = 0.5027	998.7	1580.3
318.15 K, m1 = 1.002	1006	1620.9
318.15 K, m1 = 1.504	1012.4	1656.7
318.15 K, m1 = 2.005	1018	1688.3
318.15 K, m1 = 2.519	1022.8	1713.8
318.15 K, m1 = 3.008	1027.3	1743.7
